Measured values as given in US20220145335A1, “Bio-catalyzed Synthesis of Potent Anti-inflammatory Agents from Medroxyprogesterone Acetate” (priority 2022, published 2022).
Where two headings read alike, the source gives them in different places.

Legend:
[1] = tested on: T-cells (peripheral blood mononuclear cells); experiment: T-cell proliferation assay (PHA-stimulated PBMC, tritiated thymidine incorporation); format: cell-based, human; conditions: in vitro; for IC50: PHA-stimulated human PBMC, 72 h + 18 h thymidine pulse, read-out: IC50, T-cell proliferation inhibition; for T-cell proliferation inhibitory activity, result in words: compared to substrate (1) and standard prednisolone
Experimental: T-Cell Proliferation Assay The T-cell proliferation inhibitory activity of compounds 2-6 were evaluated by following the method of Nielsen et al. (1998). Peripheral blood mononuclear cells (PBMC) were isolated by Ficoll-Hypaque gradient centrifugation from the blood of healthy human volunteers. The concentration of the cell was adjusted to 2×10^6 cells/mL in RPMI-1640 media containing 5% FBS (Fetal bovine serum) and then 5 μg/mL phytohemagglutinin (PHA) was added into each well of a sterile 96-well plates. Different concentrations of test compounds (0.2, 1, 5, and 25 μg/mL) were then added, each in triplicate. Positive control wells contained cells and PHA, whereas the negative control contains cells alone. The plate was incubated in 5% CO2 at 37° C. for 72 hours and the cells were pulsed with 25 μL of tritiatedthymidine (0.5 μci/well), and the incubation was continued for 18 hours. Cells were harvested on a glass fiber filter, and the effect of the test compounds on proliferation was evaluated using a LS65000 liquid scintillation counter (Beckman Coulter, Fullerton, Calif., USA) quantitatively using a LS65000 liquid scintillation counter (Beckman Coulter, CA, USA). Counts per minute (CPM) were recorded, and the inhibiton of T-cell proliferation was calculated in comparison to control containing cells and PHA.

CC(=O)O[C@]1(C(C)=O)CC[C@H]2[C@@H]3C[C@H](C)C4=CC(=O)CC[C@]4(C)[C@H]3CC[C@@]21C [Compound 1, Medroxyprogesterone acetate]
IC50 [1]: 6.48 ± 5.18 µM

CC(=O)O[C@]1(C(C)=O)CC[C@H]2[C@@H]3C[C@H](C)C4=CC(=O)CC[C@]4(C)[C@H]3C(=O)C[C@@]21C [Compound 2, 17α-Acetoxy-6α-methylpregn-4-ene-3,11,20-trione]
IC50 ([1]; 90 h): < 0.5 µM | IC50 [1]: < 0.5 µM | T-cell proliferation inhibitory activity, result in words [1]: potent inhibitors | melting point: 238 to 240 °C

CC(=O)O[C@]1(C(C)=O)C[C@@H](O)[C@H]2[C@@H]3C[C@H](C)C4=CC(=O)CC[C@]4(C)[C@H]3C(=O)C[C@@]21C [Compound 3, 17α-Acetoxy-15β-hydroxy-6α-methylpregn-4-ene-3,11,20-trione]
IC50 ([1]; 90 h): 41.6 ± 8.14 µM | T-cell proliferation inhibitory activity, result in words [1]: moderately active | melting point: 265 to 268 °C

CC(=O)O[C@]1(C(C)=O)CC[C@H]2[C@@H]3C[C@@](C)(O)C4=CC(=O)CC[C@]4(C)[C@H]3[C@@H](O)C[C@@]21C [Compound 6, 17α-Acetoxy-11β,6β-dihydroxy-6α-methylpregn-4-ene-3,20-dione]
IC50 ([1]; 90 h): 8.64 ± 0.02 µM | IC50 [1]: 8.64 ± 0.02 µM | T-cell proliferation inhibitory activity, result in words [1]: strong activity | melting point: 152 to 154 °C

CC(=O)O[C@]1(C(C)=O)C[C@@H](O)[C@H]2[C@@H]3C[C@H](C)C4=CC(=O)CC[C@]4(C)[C@H]3[C@@H](O)C[C@@]21C [Compound 5, 17α-Acetoxy-11β,15β-dihydroxy-6α-methylpregn-4-ene-3,20-dione]
IC50 ([1]; 90 h): < 0.5 µM | IC50 [1]: < 0.5 µM | T-cell proliferation inhibitory activity, result in words [1]: potent inhibitors | melting point: 228 to 230 °C

C[C@]12C=CC(=O)C=C1CC[C@@H]1[C@@H]2[C@@H](O)C[C@@]2(C)[C@H]1CC[C@]2(O)C(=O)CO [prednisolone, reference compound]
IC50 ([1]; 90 h): 9.75 ± 0.03 µM | IC50 [1]: 9.75 ± 0.03 µM

CC(=O)O[C@]1(C(C)=O)CC[C@H]2[C@@H]3C[C@@](C)(O)C4=CC(=O)CC[C@]4(C)[C@H]3C(=O)C[C@@]21C [Compound 4, 17α-Acetoxy-6β-hydroxy-6α-methylpregn-4-ene-3,11,20-trione]
IC50 ([1]; 90 h): 40.14 ± 0.12 µM | T-cell proliferation inhibitory activity, result in words [1]: moderately active | melting point: 232 to 233 °C
